Experimental data reported in patent US8986733B2, “Materials and methods for nerve repair” (University of Florida Research Foundation, Inc., priority 2001, dated 2015).

Experiments:
[1] = test system: CSPG; experiment: CSPG neoepitope (Ab1918) immunolabeling of acellular rat sciatic nerve segments treated en bloc; assay type: biochemical; conditions: en bloc treatment 16 h
Description: Preparation of acellular nerve grafts treated with chondroitinase. Adult (180-200 g) female SPRAGUE DAWLEY rats (HARLAN, Indianapolis, Ind.) were used as nerve donors and recipient hosts. Donor rats were anesthetized with halothane and decapitated. Sciatic nerves were exposed through a gluteal muscle-splitting incision and isolated free of underlying fascia. A 15-mm nerve segment was excised rostral to the bifurcation into common peroneal and tibial nerves. The segments were rinsed with cold sterile Ringer's solution, stabilized by pinning the ends to a thin plastic support, and transferred to a cryogenic vial. The vials were submerged in liquid nitrogen for 2 minutes and then transferred to a 37° C. water bath for 2 minutes. This freeze/thaw cycle was repeated, yielding acellular nerve grafts that were then stored in liquid nitrogen. On the day before grafting, the nerve grafts were warmed to room temperature and incubated in 100 μl phosphate buffered saline pH 7.4 (PBS) containing 2 units/ml chondroitinase ABC (SIGMA, St. Louis, Mo.) or in PBS (vehicle) only for 16 hours at 37° C. The grafts were rinsed twice with Ringer's and kept on ice prior to use. […]
Immunocytochemistry. Axonal regeneration was assessed by GAP-43 immunofluorescence and digital image analysis. […]

[2] = test system: rat sciatic nerve; experiment: Interpositional acellular nerve grafting, GAP-43 axon scoring; assay type: in vivo
Description: Preparation of acellular nerve grafts treated with chondroitinase. Adult (180-200 g) female SPRAGUE DAWLEY rats (HARLAN, Indianapolis, Ind.) were used as nerve donors and recipient hosts. Donor rats were anesthetized with halothane and decapitated. Sciatic nerves were exposed through a gluteal muscle-splitting incision and isolated free of underlying fascia. A 15-mm nerve segment was excised rostral to the bifurcation into common peroneal and tibial nerves. The segments were rinsed with cold sterile Ringer's solution, stabilized by pinning the ends to a thin plastic support, and transferred to a cryogenic vial. The vials were submerged in liquid nitrogen for 2 minutes and then transferred to a 37° C. water bath for 2 minutes. This freeze/thaw cycle was repeated, yielding acellular nerve grafts that were then stored in liquid nitrogen. On the day before grafting, the nerve grafts were warmed to room temperature and incubated in 100 μl phosphate buffered saline pH 7.4 (PBS) containing 2 units/ml chondroitinase ABC (SIGMA, St. Louis, Mo.) or in PBS (vehicle) only for 16 hours at 37° C. The grafts were rinsed twice with Ringer's and kept on ice prior to use. The chondroitinase ABC preparation was highly purified and stated by the manufacturer to be essentially free of protease activity.
Interpositional nerve grafting for chondroitinase experiments. Twelve rats received bilateral acellular nerve grafts, one chondroitinase-treated and one vehicle-treated graft. Host rats were deeply anesthetized using xylazine (15 mg/kg, i.m.) and ketamine (110 mg/kg, i.p.). The sciatic nerve was exposed and supported by a plastic insert placed between the nerve and underlying tissue. The region of nerve halfway between the sciatic notch and bifurcation was first coated with fibrin glue. […]
The main grafts were sectioned serially on the transverse plane in recorded measure to assess the extent of axonal growth by microscopy. […] GAP-43-positive axon profiles were scored using IMAGE-PRO PLUS software (MEDIA CYBERNETICS, Silver Springs, Md.). […]

[3] = test system: rat sciatic nerve; experiment: Human-to-rat acellular nerve xenograft model, GAP-43 axon scoring; assay type: in vivo; conditions: 8-day acellular human nerve xenografts in rat
Description: Human nerve fascicles (of similar diameter to the rat sciatic nerve) were grafted into a gap made in the rat sciatic nerve. Serial sections of the 8-day interpositional nerve xenografts were scored for GAP-43-labeled axonal profiles by digital image analysis. Data represent the means (−SEM) of 2 vehicle-treated and 2 chondroitinase-treated grafts assessed at the specified distances into the graft (proximal to distal).
In the following experiments, the hypothesis that chondroitinase treatment improves nerve regeneration through acellular human nerve grafts in a rat xenograft model was tested. Subunits (individual fascicles) taken from human nerves were treated en bloc with vehicle or chondroitinase ABC. Ten-mm interpositional nerve grafts were joined to the rat host sciatic nerve by epineurial neurorrhaphy reinforced with fibrin glue. Each of 2 host rats received bilateral grafts, one vehicle-treated and one chondroitinase-treated graft. Regeneration was initially examined after 8 days. Axonal growth was assessed at specified spatial intervals within the graft by scoring GAP-43-immunopositive profiles in transverse sections.

chondroitinase ABC
CSPG degradation (Ab1918 neoepitope immunostaining) [1]: thoroughly degraded CSPG side-chains | latency of axonal regeneration into acellular nerve grafts ([2]; 4-day and 8-day grafts): decreases the latency | axonal penetration vs control grafts ([2]; 4-day grafts, 0.3 mm from the host-graft interface): five-fold greater | average number of axons (GAP-43-immunopositive profiles) entering grafts vs control grafts ([2]; 8-day grafts, en bloc treated acellular syngrafts): more than three-fold greater | average number of axons (GAP-43-immunopositive profiles) entering grafts vs control grafts [3]: more than three-fold greater
